Values quoted from earlier work in patent EP0076676B1, “Process for using endorphins as antitumour agents” (TNI PHARMACEUTICALS, INC., priority 1981, dated 1986).

Test system: phenylalanyl-t RNA synthetase
Settings: observed by Laidow et al, J.B.C. 255 (1980)

Substance: beta-endorphin
- inhibition of phenylalanyl-t RNA synthetase: inhibit
